These results are taken from patent publication US9815835B2, “Substituted polycyclic carbamolypyridone derivative” (priority 2009, dated 2017).

Where two headings read alike, the source gives them in different places.

Test [1] concerns the target cap-dependent endonuclease (RNP fraction containing PB1•PB2•PA complex) (Influenza A virus, UniProt P15659). Description: biochemical. Particulars: RNP from A/WSN/33 virus, capped Cy3/BHQ2 30mer RNA substrate, 60 minutes at room temperature; read-out: CEN IC50.
Test [2] deals with influenza virus. Description: microbe, parasite or virus in culture. The following applies: unidentified influenza virus, 72 h. The test is classed as cell-based, influenza virus (MDBK or MDCK cells).
The mark [3] stands for this setting: read-out: CPE EC50, effective concentration to achieve 50% CPE inhibition, 3 days incubation, WST-8.

Broadly, the IC50 is the concentration at which inhibition is half-maximal.

Turning to `COCCN1C[C@H](C(c2ccccc2)c2ccccc2)n2cc(C(=O)O)c(=O)c(O)c2C1=O` [Example 2], in test [1], the IC50 was 48 nM. For the same compound, in test [2] (setting [3]), the EC50 came out at 293 nM.
Take `CCN1C[C@H](C(c2ccccc2)c2ccccc2)n2cc(C(=O)O)c(=O)c(O)c2C1=O` [Example 14]: the IC50 in test [1] stood at 43 nM. Further, in test [2] (setting [3]), the EC50 is 313 nM.
As for `O=C(O)c1cn2c(c(O)c1=O)C(=O)N(CC1CCCCO1)C[C@@H]2C(c1ccccc1)c1ccccc1` (stereo partly drawn) [Example 26], the IC50 in test [1] came out at 108 nM. In addition, in test [2] (setting [3]), the EC50 was 547 nM.
Consider `O=C1c2c(O)c(=O)ccn2[C@@H](C(c2ccccc2)c2ccccc2)CN1Cc1ccccc1` [Example 37], for which, in test [1], the IC50 came to 101 nM. The EC50 in test [2] (setting [3]) came to 318 nM.
For the compound `COCCN1C[C@H](C(c2ccccc2)c2ccccc2)n2cc(CO)c(=O)c(O)c2C1=O` [Example 48], the IC50 in test [1] amounted to 87 nM.
Same read-out and setting: the result for `COCCN1C[C@H](C(c2ccccc2)c2ccccc2)n2cc(N)c(=O)c(O)c2C1=O` [Example 56] reads 358 nM.
In the case of `COCCN1C[C@H](C(c2ccccc2)c2ccccc2)n2cc(OC)c(=O)c(O)c2C1=O` [Example 62], the IC50 in test [1] was determined as 110 nM.
On the same count and under the same terms, under `COCCN1CN(C(c2ccccc2)c2ccccc2)n2cc(C(=O)O)c(=O)c(O)c2C1=O` [Example 94] stands 96 nM.
Still for that read-out and setting: under `COCCN1CN(Cc2ccccc2-c2ccccc2)n2ccc(=O)c(O)c2C1=O` [Example 99] stands 341 nM.
Regarding `O=C1c2c(O)c(=O)ccn2N(C2c3ccccc3CCc3ccccc32)CN1C1CC1` [Example 108], the IC50 in test [1] worked out at 37 nM. The EC50 in test [2] (setting [3]) came out at 19 nM.
As for `CN(CCN1CN(C(c2ccccc2)c2ccccc2)n2ccc(=O)c(O)c2C1=O)S(=O)(=O)c1ccccc1` [Example 138], the 50% inhibitory concentration (IC50) in test [1] worked out at 166 nM.
As to `CN(CCN1CN(C(c2ccccc2)c2ccccc2)n2ccc(=O)c(O)c2C1=O)S(C)(=O)=O` [Example 139], the IC50 in test [1] was determined as 189 nM. For the same compound, the EC50 in test [2] (setting [3]) came to 741 nM.
In the same order, the values of `O=C1c2c(O)c(=O)ccn2N(C(c2ccccc2)c2ccccc2)CN1CCNS(=O)(=O)c1ccccc1` [Example 143] are 224 nM and 333 nM.
As to `O=C(NCCN1CN(C(c2ccccc2)c2ccccc2)n2ccc(=O)c(O)c2C1=O)c1ccccc1` [Example 150], the IC50 in test [1] was determined as 193 nM.
Take `O=C1c2c(O)c(=O)ccn2C(C(c2ccccc2)c2ccccc2)N2CCCCN12` (stereo not drawn) [Example 178]: in test [1], the IC50 came out at 61 nM. For the same compound, the EC50 in test [2] (setting [3]) is 75 nM.
For `O=C(O)c1cn2c(c(O)c1=O)C(=O)N(CCOc1ccc(F)cc1)C[C@@H]2C(c1ccccc1)c1ccccc1` [Example 183], the IC50 in test [1] turned out to be 74 nM. Also, in test [2] (setting [3]), the EC50 was 2370 nM.
For `O=C(O)c1cn2c(c(O)c1=O)C(=O)N(CC(F)(F)F)C[C@@H]2C(c1ccccc1)c1ccccc1` [Example 185], the IC50 in test [1] came out at 132 nM. Besides, the EC50 in test [2] (setting [3]) was determined as 1920 nM.
For the compound `O=C1c2c(O)c(=O)ccn2N(Cc2csc3ccc(Cl)cc23)CN1Cc1ccc(F)cc1` [Example 191], the IC50 in test [1] came out at 238 nM. In addition, the EC50 in test [2] (setting [3]) came out at 2820 nM.
For `CC(C)N1CN(Cc2cccc3ccsc23)n2ccc(=O)c(O)c2C1=O` [Example 204], the IC50 in test [1] was 299 nM. In addition, in test [2] (setting [3]), the EC50 turned out to be 2360 nM.
As to `O=C1c2c(O)c(=O)ccn2N(C(c2ccccc2)c2ccccc2)CN1C1CCOC1` (stereo not drawn) [Example 224], the half-inhibitory concentration (IC50) in test [1] came out at 276 nM. Besides, the EC50 in test [2] (setting [3]) amounted to 119 nM.
In the same order, the values of `CN1CCC(N2CN(C(c3ccccc3)c3ccccc3)n3ccc(=O)c(O)c3C2=O)CC1` [Example 225] are 283 nM and 663 nM.
With `CCC(COC)N1CN(C(c2ccccc2)c2ccccc2)n2ccc(=O)c(O)c2C1=O` (stereo not drawn) [Example 228], the IC50 in test [1] amounted to 243 nM. The EC50 in test [2] (setting [3]) worked out at 141 nM.
On to `CCOC(=O)CC(C)N1CN(C(c2ccccc2)c2ccccc2)n2ccc(=O)c(O)c2C1=O` (stereo not drawn) [Example 230], for which the IC50 in test [1] came to 282 nM. For the same compound, in test [2] (setting [3]), the EC50 was 525 nM.
`CNC(=O)C(C)N1CN(C(c2ccccc2)c2ccccc2)n2ccc(=O)c(O)c2C1=O` (stereo not drawn) [Example 233]: the IC50 in test [1] came to 228 nM. For the same compound, the EC50 in test [2] (setting [3]) stood at 2240 nM.
As to `CC(CC(=O)Nc1ccccc1)N1CN(C(c2ccccc2)c2ccccc2)n2ccc(=O)c(O)c2C1=O` (stereo not drawn) [Example 238], in test [1], the 50% inhibitory concentration (IC50) was found to be 101 nM. Further, the EC50 in test [2] (setting [3]) is 440 nM.
Regarding `CC(C)N1CN(C(c2ccccc2Cl)c2ccccc2Cl)n2ccc(=O)c(O)c2C1=O` [Example 240], the IC50 in test [1] came out at 37 nM. Besides, the EC50 in test [2] (setting [3]) was 48 nM.
Regarding `CC(N1CN(C(c2ccccc2)c2cccc(Cl)c2)n2ccc(=O)c(O)c2C1=O)C(F)(F)F` (stereo not drawn) [Example 241], in test [1], the IC50 was 197 nM. Besides, in test [2] (setting [3]), the EC50 turned out to be 63 nM.
For `CC(C)N1CN(C(c2cccs2)c2cccs2)n2ccc(=O)c(O)c2C1=O` [Example 244], the IC50 in test [1] is 249 nM. The EC50 in test [2] (setting [3]) was determined as 108 nM.
Take `CC(C)N1CN(C2c3ccc(Cl)cc3CCc3cc(Cl)ccc32)n2ccc(=O)c(O)c2C1=O` [Example 246]: the IC50 in test [1] is 82 nM. The EC50 in test [2] (setting [3]) is 26 nM.
Consider `CN1CC[C@H](N2CN(C3c4ccccc4CCc4ccccc43)n3ccc(=O)c(O)c3C2=O)C1` [Example 247], for which the 50% inhibitory concentration (IC50) in test [1] turned out to be 282 nM. Moreover, the EC50 in test [2] (setting [3]) worked out at 2260 nM.
Take `COCC(COC)N1CN(C2c3ccccc3CCc3ccccc32)n2ccc(=O)c(O)c2C1=O` [Example 272]: the IC50 in test [1] is 82 nM.
As for `O=C1c2c(O)c(=O)ccn2N(C2c3ccccc3CSc3ccccc32)CN1C1CCC(F)(F)CC1` (stereo not drawn) [Example 313], the half-inhibitory concentration (IC50) in test [1] turned out to be 189 nM.
For `COCCN1CN(C2c3ccccc3CSc3c(F)cccc32)n2ccc(=O)c(O)c2C1=O` (stereo not drawn) [Example 336], the IC50 in test [1] worked out at 51 nM.
Consider `COCC(COC)N1CN(C2c3ccccc3CSc3c(F)cccc32)n2ccc(=O)c(O)c2C1=O` (stereo not drawn) [Example 339], for which, in test [1], the IC50 was found to be 183 nM.
As to `CN1CN(C2c3ccccc3CSc3cc(Cl)ccc32)n2ccc(=O)c(O)c2C1=O` (stereo not drawn) [Example 348], the IC50 in test [1] came out at 54 nM.
On to `CC(C)N1CN(C2c3ccccc3CSc3cc(F)ccc32)n2ccc(=O)c(O)c2C1=O` (stereo not drawn) [Example 352], for which the IC50 in test [1] is 67 nM.
Turning to `Cc1cccc2c1SCc1ccccc1C2N1CN(C(C)C)C(=O)c2c(O)c(=O)ccn21` (stereo not drawn) [Example 356], the 50% inhibitory concentration (IC50) in test [1] came to 66 nM.
Consider `COCCN1CN(C2c3ccccc3COc3c(Cl)cccc32)n2ccc(=O)c(O)c2C1=O` (stereo not drawn) [Example 396], for which the IC50 in test [1] stood at 56 nM.
On the same count and under the same terms, the result for `C[C@@H](N1CN([C@@H]2c3ccccc3SCc3c(Cl)cccc32)n2ccc(=O)c(O)c2C1=O)C(F)(F)F` [Example 417] reads 30 nM; that for `C[C@@H](N1CN([C@H]2c3ccc(F)cc3CSc3ccccc32)n2ccc(=O)c(O)c2C1=O)C(F)(F)F` [Example 454], 12 nM; that for `C[C@@H](N1CN([C@@H]2c3ccccc3SCc3c(Br)cccc32)n2ccc(=O)c(O)c2C1=O)C(F)(F)F` [Example 463], 12 nM.
Turning to `C[C@@H](N1CN([C@H]2c3cccc(F)c3CSc3c(F)cccc32)n2ccc(=O)c(O)c2C1=O)C(F)(F)F` [Example 469], the IC50 in test [1] is 16 nM.
With `C[C@@H](N1CN([C@H]2c3ccc(F)cc3CSc3c(F)cccc32)n2ccc(=O)c(O)c2C1=O)C(F)(F)F` [Example 470], the half-maximal inhibitory concentration (IC50) in test [1] came out at 8 nM.
As for `CC(C)N1CN(C2c3ccccc3CSc3ccccc32)n2cc(C(=O)O)c(=O)c(O)c2C1=O` (stereo not drawn) [Example 492], the EC50 in test [2] (setting [3]) is 160 nM.
Regarding `CCN1C(=O)c2c(O)c(=O)ccn2C(C2c3ccccc3CSc3ccccc32)N1CC` (stereo not drawn) [Example 502], the EC50 in test [2] (setting [3]) was 142 nM.
As to `O=C(O)c1cn2c(c(O)c1=O)C(=O)N1CCCCN1C2C(c1ccccc1)c1ccccc1` (stereo not drawn) [Example 507], the EC50 in test [2] (setting [3]) was 197 nM.
With `CSCC1N(C(C)C)C(=O)c2c(O)c(=O)ccn2N1C1c2ccccc2CCc2ccccc21` (stereo not drawn) [Example 514], in test [2] (setting [3]), the EC50 stood at 18 nM.
As for `CCCC1N(C(C)C)C(=O)c2c(O)c(=O)ccn2N1C1c2ccccc2CCc2ccccc21` (stereo not drawn) [Example 518], the EC50 in test [2] (setting [3]) is 24 nM.
As for `COCCCC1N(C(C)C)C(=O)c2c(O)c(=O)ccn2N1C1c2ccccc2CCc2ccccc21` (stereo not drawn) [Example 522], the EC50 in test [2] (setting [3]) was found to be 14 nM.
Regarding `COCCCC1N(C(C)C)C(=O)c2c(O)c(=O)ccn2N1C1c2cccc(F)c2CCc2c(F)cccc21` (stereo not drawn) [Example 523], the EC50 in test [2] (read-out: CPE EC50) is 14 nM.
On to `CC(=O)N(C)CC1N(C(C)C)C(=O)c2c(O)c(=O)ccn2N1C1c2ccccc2CCc2ccccc21` (stereo not drawn) [Example 525], for which the IC50 in test [1] stood at 141 nM.
For the compound `COCCCC1N(C(C)C)C(=O)c2c(O)c(=O)ccn2N1C1c2ccc(F)cc2CCc2cc(F)ccc21` (stereo not drawn) [Example 526], the EC50 in test [2] (setting [3]) is 19 nM.
For the compound `CC(C)N1C(=O)c2c(O)c(=O)ccn2N(C2c3ccccc3CCc3ccccc32)C1CCN` (stereo not drawn) [Example 533], in test [2] (setting [3]), the EC50 is 391 nM.
As for `CC(C)N1C(=O)c2c(O)c(=O)ccn2N(C2c3ccccc3CCc3ccccc32)C1CCCN` (stereo not drawn) [Example 534], the EC50 in test [2] (setting [3]) came to 1200 nM.
On to `CC(C)N1C(=O)c2c(O)c(=O)ccn2N(C2c3ccccc3CCc3ccccc32)C1CCN(C)C` (stereo not drawn) [Example 537], for which the EC50 in test [2] (setting [3]) is 22 nM.
Still for that read-out and setting: under `CCN(CC)CC1N(CCO)C(=O)c2c(O)c(=O)ccn2N1C1c2ccccc2CCc2ccccc21` (stereo not drawn) [Example 550] stands 42 nM; under `CN(C)CC1N(CCO)C(=O)c2c(O)c(=O)ccn2N1C1c2ccccc2CCc2ccccc21` (stereo not drawn) [Example 551], 107 nM.
With `CC(C)C1N(CCO)C(=O)c2c(O)c(=O)ccn2N1C1c2ccccc2CCc2ccccc21` (stereo not drawn) [Example 553], in test [1], the IC50 turned out to be 28 nM.
Take `COCCN1C(=O)c2c(O)c(=O)c(C(=O)O)cn2N(C2c3ccccc3CCc3ccccc32)C1CCSC` (stereo not drawn) [Example 556]: the EC50 in test [2] (setting [3]) came to 412 nM.
Regarding `COCCN1C[C@H](C(c2ccccc2)c2ccccc2)n2cc(Cl)c(=O)c(O)c2C1=O` [Example 558], in test [2] (setting [3]), the EC50 worked out at 541 nM.
Regarding `N#Cc1ccccc1N1CC(C2c3ccccc3CCc3ccccc32)n2ccc(=O)c(O)c2C1=O` (stereo not drawn) [Example 568], in test [2] (setting [3]), the EC50 was 2810 nM.
